Data as given in patent US20030013041A1, “Optical data carrier comprising a cationic aminoheterocyclic dye as light-absorbent compound in the information layer” (priority 2001, published 2003).

Experiments:
Assay type in all cases: physicochemical
Solubility in TFP = assay: Solubility in TFP
[1] = Absorption spectrum measured in solution; details: for λmax (methanol): in methanol; for λmax (methylene chloride): in methylene chloride; for λ1/2-λ1/10 (long wavelength flank): on the long wavelength flank; for λ1/2-λ1/10 (short wavelength flank): on the short wavelength flank
Description: In the case of a write-once optical data carrier according to the invention which is written on and read by means of the light of a blue laser, preference is also given to cationic aminoheterocyclic dyes whose absorption maximum λmax2 is in the range from 420 to 550 nm, where the wavelength λ½ at which the absorbance in the short wavelength flank of the absorption maximum at the wavelength λmax2 is half of the absorbance value at λmax2 and the wavelength λ 1/10 at which the absorbance in the short wavelength flank of the absorption maximum at the wavelength λmax2 is one tenth of the absorbance value at λmax2 are preferably not more than 50 nm apart. Such a cationic aminoheterocyclic dye preferably has no shorter-wavelength maximum λmax1 down to a wavelength of 350 nm, particularly preferably down to 320 nm, very particularly preferably down to 290 nm.
In the case of a write-once optical data carrier according to the invention which is written on and read by means of the light of a red laser, preference is given to cationic aminoheterocyclic dyes whose absorption maximum λmax2 is in the range from 500 to 650 nm, where the wavelength λ½ at which the absorbance in the long wavelength flank of the absorption maximum at the wavelength λmax2 is half of the absorbance value at λmax2 and the wavelength λ 1/10 at which the absorbance in the long wavelength flank of the absorption maximum at the wavelength λmax2 is one tenth of the absorbance value at λmax2 are preferably not more than 50 nm apart. Such a cationic aminoheterocyclic dye preferably has no longer-wavelength maximum λmax3 up to a wavelength of 750 nm, particularly preferably up to 800 nm, very particularly preferably up to 850 nm.
The absorption spectra are measured, for example, in solution.
Suitable cationic aminoheterocyclic dyes having the required spectral properties are, in particular, those in which the dipole moment change Δμ=|μg−μag|, i.e. the positive difference between the dipole moments in the ground state and in the first excited state, is very small, preferably <5 D, particularly preferably <2 D. A method of determining such a dipole moment change Ap is described, for example, in F. Wuirthner et al., Angew. Chem. 1997, 109, 2933, and in the literature cited therein. A low solvent-induced wavelength shift (methanol/methylene chloride) is likewise a suitable selection criterion. Preference is given to cationic aminoheterocyclic dyes whose solvent-induced wavelength shift Δλ=|λmethylene chloride−λmethanol|, i.e. the positive difference between the absorption wavelengths in the solvents methylene chloride and methanol, is <25 nm, particularly preferably <15 nm, very particularly preferably <5 nm.

Film formation = assay: Film formation
Description: Apart from the abovementioned optical properties, the writeable information layer comprising light-absorbent organic substances has to have a substantially amorphous morphology to keep the noise signal during writing or reading as small as possible. For this reason, it is particularly preferred that crystallization of the light-absorbent substances be prevented in the application of the substances by spin coating from a solution, by vapour deposition and/or sublimation during subsequent covering with metallic or dielectric layers under reduced pressure.

Structure (SMILES) | Solubility (Solubility in TFP) | λmax (methanol) [1] | λmax (methylene chloride) [1] | λ1/2-λ1/10 (long wavelength flank) [1] | λ1/2-λ1/10 (short wavelength flank) [1] | ε ([1]; solvent not stated, printed after λmax in methanol and methylene chloride) | Film appearance (Film formation) | ε ([1]; at λmax in methanol) | ε ([1]; at λmax in methylene chloride)
CN(C)c1ccc(/C=C/C2=[N+](C)c3ccccc3C2(C)C)o1 [Example 2] | > 2% | 551 nm |  | 30 nm | 41 nm |  | Glass-like film | 87 670 l/mol cm | 
CCCCN(CCCC)c1ccc(/C=C/C2=[N+](C)c3ccccc3C2(C)C)s1 [Example 3] | > 2% | 528 nm | 543 nm | 14 nm | 34 nm |  | Glass-like film | 68 555 l/mol cm | 98 554 l/mol cm
CC1(C)C2=NC(=[N+]3CCCC3)SC2=Cc2sc(N3CCCC3)nc21 [Example 7] |  |  | 616 nm | 27 nm | 50 nm |  |  |  | 37153 L/mol/cm

Next, values leading:

Solubility (Solubility in TFP) | λmax (methanol) [1] | λmax (methylene chloride) [1] | λ1/2-λ1/10 (long wavelength flank) [1] | λ1/2-λ1/10 (short wavelength flank) [1] | ε ([1]; solvent not stated, printed after λmax in methanol and methylene chloride) | Film appearance (Film formation) | ε ([1]; at λmax in methanol) | ε ([1]; at λmax in methylene chloride) | Structure (SMILES)
> 2% | 581 nm | 587 nm | 14.5 nm | 42 nm | 102 800 l/mol cm |  |  |  | C(=C1/SC(=[N+]2CCOCC2)N=C1c1ccccc1)/c1sc(N2CCOCC2)nc1-c1ccccc1 [Example 1]
> 2% |  | 601 nm | 19 nm | 42 nm |  |  |  | 104 970 l/mol cm | CN(C)c1ccc(/C=C2\SC(=[N+]3CCOCC3)N=C2c2ccccc2)cc1 [Example 4]
 |  | 623 nm |  |  |  |  |  | 43650 L/mol/cm | CN(c1ccccc1)c1nc2c(s1)C=C1S/C(=[N+](\C)c3ccccc3)N=C1C2(C)C [Example 8]
